“And” between values parts separate entries of the source, which are not always exact repeats. Equal values may be shown once.
Columns and labels:
[1] = tested on: R6/2 Huntington's mice; assay: Neurological index scoring in R6/2 mice; type: in vivo
Protocol: The body weights were measured daily.
The following 30 behaviors were evaluated: Head Tremor, Head Twitch, Head Bobbing, Head Searching, Body Tremor, Body Twitch, Tail Tremor, Tail Twitch, Straub Tail, Piloerection, Shallow Respiration, Flattened Body Posture, Swollen Face, Ptosis, Irritability, Seizure, Urine Staining, Lacrimation, Salivation, Limb Splay, Catalepsy, Abnormal Gait, Tip Toe Walking, Slow Careful Movements, Excessive Grooming, Circling, Sniffing, and Chewing. In addition to the above occurrences the chronic observational phase included excessive locomotor activity, loss of startle response, loss of righting reflex, dehydration and tail pinch. The assessment was performed as follows: A score of 0 was assigned for normal features (such as locomotor activity) or for the absence of abnormal features (such as absence of piloerection); a score of 1 was given when mild abnormalities were observed; and a score of 2-3 was given when severe abnormalities were observed. All of these features were scored from simple observation of the mice in their cage, except for the startle, tail pinch and righting reflexes which were direct manipulations. To test the startle reflex, a small hand clicker was used to generate a loud popping noise and the following behaviors were identified during this process: jumping, freezing, and rapid eye blinks. For the righting reflex, each mouse was then removed from its home cage and placed on its back allowing the mouse to correct itself. Tail pinch was tested by gently squeezing the end of the tail with forceps.

[2] = Body temperature (rectum) in R6/2 mice; conditions: for Body temperature vs vehicle: day 7, p<0.05
Protocol: Body temperature was measured from rectum on day 1 (baseline), and on days 3, 5 and 7.
Body temperature was measured from rectum on day 1 (baseline) and on days 3, 5 and 7.

[3] = tested on: CUG-repeat RNA; conditions: reported previously; cited from earlier work
[4] = tested on: pre-45s rRNA in EGFPCAG78 RNA expressing SK-N-MC cells; assay: pre-45s rRNA real-time PCR, EGFPCAG78 RNA expressing SK-N-MC cells; type: cell-based, human
Protocol: Nucleolar stress and a chain of downstream events were triggered and ultimately led to apoptosis^7.
RNA was extracted from cells by Trizol reagent (Life Technologies), and 1 μg of purified RNA was then used for reverse-transcription using the ImPromII™ Reverse Transcription System (Promega). Random hexamer (Roche) was used as primers in reverse transcription. Taqman gene expression assays were performed on an ABI 7500 Real-time PCR system and data were analyzed as previously described^7. The following probes were used: pre-45s rRNA (Assay ID: AILJIZM) and actin (Assay ID: Hs99999903_m1).

CN(C)CCCNC(=N)c1ccc(C(=N)NCCCN(C)C)cc1.Cl.Cl.Cl.Cl [DB213]
Mean neurological index score of all parameters vs vehicle ([1]; i.n. 300 mg/kg, day 3, p<0.05): significantly higher mean score
Neurological index score, differences between treatment groups ([1]; i.v. dosing): no differences in neurological index score
Neurological index score ([1]; intranasal dosing): increased neurological index score
Body temperature vs vehicle ([2]; i.n. 100 mg/kg): increased
Body temperature vs vehicle ([2]; i.n. 300 mg/kg): increased
Body temperature (group Mean) ([2]; i.n. daily 50 mg/kg, Day 1 (baseline)): 36.9
Body temperature (individual mouse) ([2]; i.n. daily 50 mg/kg, Day 1 (baseline), listed as Compound-5, 50 mg/kg): 37 and 35.9 and 36.4
Body temperature (group Mean) ([2]; i.n. daily 50 mg/kg, Day 3): 36.9
Body temperature (individual mouse) ([2]; i.n. daily 50 mg/kg, Day 3, listed as Compound-5, 50 mg/kg): 36.9 and 35.8 and 37
Body temperature (individual mouse) ([2]; i.n. daily 50 mg/kg, Day 5, listed as Compound-5, 50 mg/kg): 37.9
Body temperature (individual mouse) ([2]; i.n. daily 50 mg/kg, Day 7, listed as Compound-5, 50 mg/kg): 37 and 38.1
Body temperature (group Mean) ([2]; i.n. daily 100 mg/kg, Day 1 (baseline)): 37.0
Body temperature (individual mouse) ([2]; i.n. daily 100 mg/kg, Day 3, listed as Compound-5, 100 mg/kg): 37.7 and 37 and 36.9
Body temperature (individual mouse) ([2]; i.n. daily 100 mg/kg, Day 5, listed as Compound-5, 100 mg/kg): 37.7 (2×) and 36.6 and 37.9 and 36.9
Body temperature (individual mouse) ([2]; i.n. daily 100 mg/kg, Day 7, listed as Compound-5, 100 mg/kg): 38.1 and 37.7 and 36.9
Body temperature (individual mouse) ([2]; i.n. daily 200 mg/kg, Day 1 (baseline), listed as Compound-5, 200 mg/kg): 36.9 (2×) and 37.7
Body temperature (individual mouse) ([2]; i.n. daily 200 mg/kg, Day 3, listed as Compound-5, 200 mg/kg): 36.6
Body temperature (individual mouse) ([2]; i.n. daily 200 mg/kg, Day 5, listed as Compound-5, 200 mg/kg): 38
Body temperature (individual mouse) ([2]; i.n. daily 300 mg/kg, Day 5, listed as Compound-5, 300 mg/kg): 38
Body temperature (individual mouse) ([2]; i.n. daily 300 mg/kg, Day 7, listed as Compound-5, 300 mg/kg): 37.9
Body temperature (group Mean) ([2]; i.v. 50 mg/kg (treatment discontinued), Day 3, n 1): 37.7
Body temperature (group Mean) ([2]; i.v. 50 mg/kg (treatment discontinued), Day 5, n 1): 38.0
Body temperature (group Mean) ([2]; i.v. 50 mg/kg (treatment discontinued), Day 7, n 1): 37.0
Body temperature, differences between treatment groups ([2]; i.v. dosing, p>0.05): no significant differences
Body temperature (group Mean) ([2]; i.v. twice-a-week 12.5 mg/kg, Day 1 (baseline)): 36.7
Body temperature (individual mouse) ([2]; i.v. twice-a-week 12.5 mg/kg, Day 1 (baseline), listed as Compound-5): 35.7 and 37
Body temperature (individual mouse) ([2]; i.v. twice-a-week 12.5 mg/kg, Day 3, listed as Compound-5): 38
Body temperature (group Mean) ([2]; i.v. twice-a-week 12.5 mg/kg, Day 5): 37.0
Body temperature (individual mouse) ([2]; i.v. twice-a-week 12.5 mg/kg, Day 5, listed as Compound-5): 37
Body temperature (individual mouse) ([2]; i.v. twice-a-week 12.5 mg/kg, Day 7, listed as Compound-5): 37 and 38.6
Body temperature (group Mean) ([2]; i.v. twice-a-week 25 mg/kg, Day 1 (baseline)): 37.0
Body temperature (individual mouse) ([2]; i.v. twice-a-week 25 mg/kg, Day 1 (baseline), listed as Compound-5): 37.9 and 36.6 and 36.4 and 38.5
Body temperature (individual mouse) ([2]; i.v. twice-a-week 25 mg/kg, Day 3, listed as Compound-5): 36.9
Body temperature (individual mouse) ([2]; i.v. twice-a-week 25 mg/kg, Day 5, listed as Compound-5): 37.9
Body temperature ([2]; intranasal dosing): increased
Binding to CUG repeats / CUG-repeat RNA [3]: did not bind to CUG repeats
pre-45s rRNA transcription level [4]: could restore the pre-45s rRNA transcription level

Source: patent publication US10143666B2, “Small molecule inhibitors targeting CAG-repeat RNA toxicity in polyglutamine diseases” (The Chinese University of Hong Kong, priority 2015, dated 2018)
